Consider two compounds from paper PMC10363510 (Plant Communications, 2023).

The assay concerns SiAT1. Description: HPLC product assay, Michaelis-Menten fit. It is filed as biochemical, Sesamum indicum. The conditions noted are these: read-out: apparent Km; 75 mM salidroside, 50 mM Tris-HCl pH 7.4, 30°C.

Structures are written as SMILES.

For `CC(C)(COP(=O)(O)OP(=O)(O)OC[C@H]1O[C@@H](n2cnc3c(N)ncnc32)[C@H](O)[C@@H]1OP(=O)(O)O)[C@@H](O)C(=O)NCCC(=O)NCCSC(=O)/C=C/c1ccc(O)c(O)c1` [caffeoyl-CoA], the Km was 1.13 ± 0.42 µM.
Turning to `CC(C)(COP(=O)(O)OP(=O)(O)OC[C@H]1O[C@@H](n2cnc3c(N)ncnc32)[C@H](O)[C@@H]1OP(=O)(O)O)[C@@H](O)C(=O)NCCC(=O)NCCSC(=O)/C=C/c1ccc(O)cc1` [p-coumaroyl-CoA], the Km came out at 1.66 ± 0.39 µM.

What is called Km is the concentration of substrate that gives half-maximal velocity.
